{"source": "patent US20210015944A1", "about": "“Targeted Doxorubicin-Gold Nanocojugates for Tumor Therapy” (The Curators of the University of Missouri, priority 2017, published 2021)", "key": {"[1]": {"system": "PC3 human prostate cancer cells", "test": "In vitro cytotoxicity MTT assay, GRP expressing cells", "type": "cell-based", "conditions": "PC-3, 24 hour incubation, based on total weight of nanoconjugate, read-out: IC50, Nanoconjugate Conc.", "experimental": "(§1) Cell culture: PC-3 human prostate and MDA-MB231 human breast carcinoma cells (ATCC, USA) were grown in RPMI 1640 medium (obtained from Gibco BRL, Grand Island, N.Y.) supplemented with 4.5 g/L D-glucose, 25 mM Hepes, 0.11 g/L sodium pyruvate, 1.5 g/L sodiumbicarbonate, 2 mM L-glutamine, 10% heat-inactivated fetal bovine serum (Atlanta Biologicals, USA) and 1% penicillin/streptomycin antibitiotic solution. Cells were cultured in a humidified atmosphere of 95% air and 5% CO2 at 37° C. (Thermo Scientific, USA), with the medium changed every other day. The cells were adherent in monolayers and when confluent were harvested from the cell culture flasks with trypsin—EDTA (Invitrogen) and seeded further apart.\nIn vitro Cytotoxicity Assay: In vitro cytotoxicity evaluation of NP1-DOX and NP2-DOX with respective controls such as NP1, NP2, free doxorubicin was performed on GRP expressing and non-expressing cancer cells, PC3 and MDA-MB-231, respectively. The cytotoxicity evaluation was performed in triplicates and the protocol was followed as described by the manufacturer. […] The plates were kept for 2 hours in dark at 25° C. to dissolve all crystals, and the intensity of developed color was measured by micro plate reader (Epoch, BioTek, USA) operating at 570 nm wavelength. […]"}, "[2]": {"system": "MDA-MB-231 human breast cancer cells", "test": "In vitro cytotoxicity MTT assay, non-GRP expressing cells", "type": "cell-based", "conditions": "MDA-MB231 cells; for IC50: Homo sapiens, MDA-MB-231", "experimental": "as §1\nIn vitro Cytotoxicity Assay: In vitro cytotoxicity evaluation of NP1-DOX and NP2-DOX with respective controls such as NP1, NP2, free doxorubicin was performed on GRP expressing and non-expressing cancer cells, PC3 and MDA-MB-231, respectively. The cytotoxicity evaluation was performed in triplicates and the protocol was followed as described by the manufacturer. Briefly, 1×10^5 ml^−1 cells at the exponential growth phase were placed in a flat bottom 96-well polystyrene-coated plate and were incubated for 12 hour in a CO2 incubator at 5% CO2 and 37° C. A series of concentrations ranging from 0 to 10 ug/mL (0, 0.31, 0.625, 1.25, 2.5, 5.0 and 10 μg/mL) of NP1-Dox and NP2-Dox was prepared in the medium. Each concentration was added to the plate in quadruplets. After 24 hour incubation, 10 μL per well MTT (as received from the manufacturer, Promega Corporation, USA) was added and kept for 4 hours, and the formazan crystals so formed were dissolved in 100 μL detergent/solubilizing buffer. The plates were kept for 2 hours in dark at 25° C. to dissolve all crystals, and the intensity of developed color was measured by micro plate reader (Epoch, BioTek, USA) operating at 570 nm wavelength. Wells with complete medium, nanoparticles, and MTT, but without cells, were used as blanks. Untreated cells were considered 100% viable. […]"}}, "note": "Where two headings read alike, the source gives them in different places.", "data": [{"smiles": "COc1cccc2c1C(=O)c1c(O)c3c(c(O)c1C2=O)C[C@@](O)(C(=O)CO)C[C@@H]3O[C@H]1C[C@H](N)[C@H](O)[C@H](C)O1", "note": "[Doxorubicin]", "values": [{"measurement": "IC50", "setting": "[1]", "value": 9.5, "unit": "µg/mL"}, {"measurement": "IC50", "setting": "[2]; 24 hour incubation, MTT, based on total weight of nanoconjugate, read-out: IC50, Nanoconjugate Conc.", "value": "> 10", "unit": "µg/mL"}, {"measurement": "IC50", "setting": "[2]; in terms of doxorubicin loaded (0.53 μg/mg NP1-DOX, 0.3 μg/mg NP2-DOX), read-out: IC50, Doxorubicin Conc.", "value": "> 10", "unit": "µg/mL"}, {"measurement": "IC50, Nanoconjugate Conc.", "setting": "[2]; 24 hour incubation, MTT, based on total weight of nanoconjugate", "value": ">10", "unit": "µg/mL"}]}]}
